This is an account of results in PMC11327196, “A phase 1 study to assess the absolute bioavailability, mass balance, pharmacokinetics, metabolism, and excretion of [^14C]-mobocertinib, an oral inhibitor of EGFR exon 20 insertion mutations, in healthy participants” (Investigational New Drugs, 2024).

Series [1] has as its system platinum-pretreated EGFRex20ins mutation positive locally advanced or metastatic NSCLC. Set-up: method as in PMID 34647988. Conditions: 114 patients, mobocertinib 160 mg orally qd; cited from earlier work.
Series [2] in a line: Period 1 absolute bioavailability study: plasma PK after single oral 160 mg mobocertinib capsules. It counts as in vivo, human. How it is done: This was a two-period, open-label, single-dose phase 1 study (NCT03811834) conducted at one clinical site (Celerion, Lincoln, Nebraska, USA) in healthy male participants. The primary objective of Period 1 was to determine the absolute bioavailability of mobocertinib following a single oral dose of 160 mg mobocertinib as capsules and a single intravenous (IV) microdose of 50 µg (~ 2 µCi) [^14C]-mobocertinib. The primary objectives of Period 2 were to (1) assess the cumulative excretion of total radioactivity in urine and feces (mass balance); (2) assess the metabolite profile of mobocertinib in plasma, urine, and feces; and (3) characterize the PK of mobocertinib, AP32960, and AP32914 in plasma, whole blood, and urine, and total radioactivity concentration equivalents in plasma and whole blood following a single oral dose of 160 mg (~ 100 µCi) [^14C]-mobocertinib as an oral solution. A sample size of 6 healthy males was selected without statistical considerations and deemed adequate to meet the study objectives. Furthermore, the sample size was limited based on clinical considerations for human ADME studies and to limit exposure to radioactivity.
On Day 1 of Period 1, following an overnight fast of at least 10 h, participants received a single 160 mg dose of non-radiolabeled mobocertinib as capsules. At 3.75 h post oral dosing (i.e., 15 min before the median oral tmax of ~ 4 h), participants received a nominal dose of 50 µg (~ 2 µCi) [^14C]-mobocertinib as a 15-minute IV infusion. However, due to nonspecific binding of [^14C]-mobocertinib to the dosing syringe and tubing, actual doses administered ranged from 36.8 to 38.7 µg (1.47 to 1.55 µCi). Participants were required to stay in the clinic from Day − 1 through at least the 96-hour blood draw (Day 5) or until a discharge criterion was met (i.e., ≥ 80% of the total administered radioactive dose was recovered in urine and fecal samples or excretion of radioactivity in urine and feces combined had declined to ≤ 1% of the total administered dose per day for ≥ 2 consecutive intervals), up to a maximum of 7 days postdose (Day 8). Blood samples for the measurement of plasma mobocertinib, AP32960, and AP32914 concentrations were collected predose and at 0.5, 1, 2, 3, 4, 5, 6, 8, 12, 24, 36, 48, 72, and 96 h after oral administration. Additional blood samples to determine [^14C]-total radioactivity, [^14C]-mobocertinib, [^14C]-AP32960, and [^14C]-AP32914 in plasma were collected at 3.75 h after oral dosing (i.e., predose for [^14C] assessments), at the end of the IV infusion, and at 10, 20, and 30 min, and 1, 2, 4, 8, 20, 32, 44, 68, and 92 h after the end of infusion. […] Urine and feces were collected before oral dosing (− 48–0 h); urine was collected over 0–3.75 h, 3.75–12 h and 12–24 h after oral dosing; feces were collected from 0 to 3.75 h and 3.75–24 h after oral dosing; both urine and feces were then collected over 24-hour intervals until a discharge criterion was met, or up to Day 8 (168 h postdose).
Plasma, whole blood, and urine samples were assayed for mobocertinib, AP32960, and AP32914 concentrations using liquid chromatography-tandem mass spectrometry (Q2 Solutions, Ithaca, New York, USA). The analytical range for each analyte was 0.250 to 500 ng/mL in whole blood and plasma, and 1.00 to 1000 ng/mL in urine. […] Urine and fecal samples were assayed for total radioactivity following the IV dose of [^14C]-mobocertinib in Period 1, and whole blood, plasma, urine, and fecal samples were assayed for total radioactivity following the oral dose of [^14C]-mobocertinib in Period 2 using liquid scintillation counting (LSC; Celerion, Lincoln, Nebraska, USA; LLOQs: Period 1 urine: 0.115–0.118 ng eq/g, feces: 0.720–0.759 ng eq/g; Period 2 whole blood: 87.3–112 ng eq/g, plasma: 116–132 ng eq/mL, urine: 37.8–46.8 ng eq/g, feces: 110–336 ng eq/g across participants). […]

Where [3] appears, read: Period 1, single oral 160 mg mobocertinib capsules, geometric mean (geometric CV%).

For `C=CC(=O)Nc1cc(Nc2ncc(C(=O)OC(C)C)c(-c3cn(C)c4ccccc34)n2)c(OC)cc1N(C)CCN(C)C` [Mobocertinib], in series [1], the “median duration of response” value is 17.5 months, the median overall survival was 24.0 months, the median progression-free survival is on record as 7.3 months and the “objective response rate per independent-review committee” value is on record as 28%. Further, in series [2] (setting [3]), the CL/F was 152 (64.9) L/h and the Cmax is given as 56.7 (52.2) ng/mL. Further, in series [2] (Period 1, single oral 160 mg mobocertinib capsules, median (range)), the tmax is recorded as 5.0 (4.0–6.0) h. The bioavailability in series [2] (male, human, Period 1, oral 160 mg capsules AUC∞ vs dose-normalized IV microdose AUC∞, 90% CI 22.4–60.2%, read-out: geometric mean absolute oral bioavailability) stood at 36.7%. The molecule also yielded an area under the curve AUC(0-inf) in series [2] (male, human, Period 1, single oral 160 mg mobocertinib capsules, geometric mean (geometric CV%)) of 1050 ng·h/mL. Moreover, the Vd/F in series [2] (male, human, Period 1, single oral 160 mg mobocertinib capsules, geometric mean (geometric CV%), read-out: Vz/F) was 5030 L. For the same molecule, in series [2] (male, human, Period 1, single oral 160 mg mobocertinib capsules, geometric mean (geometric CV%), read-out: t1/2z (converted)), the half-life is 22.9 h.
